The subject of this series is cancer cells. Description: MTT cytotoxic assay of esterification products (Cytotoxicity activity). The format is cell-based, human. Summed up:
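Cytotoxicity was read by MTT (Carmichael method, modified), with cells seeded 24 h ahead of treatment. Sixteen human cancer lines spanning bone, lung, bladder, ovary, colon, pancreas, prostate, skin, mouth, kidney, breast, liver, brain, leukemia and cervix were used. Test samples were acyl chloride esterification products of triterpenes, as mixtures or HPLC-purified compounds.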

Where [1] appears, read: E4A esterified with 2-propenoyl chloride (Ppe = Propenoyl), compounds isolated with HPLC.
Where [2] appears, read: E4A esterified with Propionyl chloride (Ppi = Propionyl), compounds isolated with HPLC.
[3] abbreviates: E4A esterified with benzoyl chloride (Ben = benzoyl), compounds isolated with HPLC.
The mark [4] stands for this setting: esterification products of core compound E4A with (2E)-2-pentenoyl chloride (2pe = 2-pentenoyl).
Setting [5] is: esterification products of core compound E4A with Butyryl chloride (But = Butyryl).
The mark [6] stands for this setting: esterification products of core compound E4A with Decanoyl chloride (Dec = Decanoyl).
The mark [7] stands for this setting: esterification products of core compound E4A with Isobutyryl chloride (Iso = Isobutyryl).
[8] abbreviates: esterification products of core compound E4A with Myristoyl chloride (Myr = Myristoyl).
Setting [9] is: esterification products of core compound E4A with Octanoyl chloride (Oct = Octanoyl).

`CC1(C)CC2C3=CCC4C5(C)CCC(O)C(C)(COC(=O)c6ccccc6)C5CCC4(C)C3(C)CC(OC(=O)c3ccccc3)C2(COC(=O)c2ccccc2)C(O)C1OC(=O)c1ccccc1` (stereo not drawn) [Compound K13]: the Cytotoxicity activity entry is, setting by setting: under setting [1], “weak”; under setting [2], “weak”; under setting [3], “weak”; under setting [4], “weak”; under setting [5], “weak”; under setting [6], “weak”. The Cytotoxicity activity entry is on record as “weak” under setting [7], “weak” under setting [8] and “weak” under setting [9].

Turning to `CC1(C)CC2C3=CCC4C5(C)CCC(OC(=O)c6ccccc6)C(C)(COC(=O)c6ccccc6)C5CCC4(C)C3(C)CC(O)C2(COC(=O)c2ccccc2)C(OC(=O)c2ccccc2)C1O` (stereo not drawn) [Compound K14], the Cytotoxicity activity entry was “weak” under setting [1]; “weak” under setting [2]; “weak” under setting [3]; “weak” under setting [4]; “weak” under setting [5]; “weak” under setting [6]. Further, the Cytotoxicity activity result is “weak” under setting [7], “weak” under setting [8] and “weak” under setting [9].

Take `CC1(C)CC2C3=CCC4C5(C)CCC(OC(=O)c6ccccc6)C(C)(COC(=O)c6ccccc6)C5CCC4(C)C3(C)CC(O)C2(COC(=O)c2ccccc2)C(OC(=O)c2ccccc2)C1OC(=O)c1ccccc1` (stereo not drawn) [Compound K15]: the Cytotoxicity activity result is listed as “weak” under setting [1]; “weak” under setting [2]; “weak” under setting [3]; “weak” under setting [4]; “weak” under setting [5]; “weak” under setting [6]. Also, the Cytotoxicity activity result runs as follows: under setting [7], “weak”; under setting [8], “weak”; under setting [9], “weak”.

As for `CC1(C)CC2C3=CCC4C5(C)CCC(O)C(C)(COC(=O)c6ccccc6)C5CCC4(C)C3(C)CC(OC(=O)c3ccccc3)C2(COC(=O)c2ccccc2)C(OC(=O)c2ccccc2)C1OC(=O)c1ccccc1` (stereo not drawn) [Compound K16], the Cytotoxicity activity entry reads like this: under setting [1], “weak”; under setting [2], “weak”; under setting [3], “weak”; under setting [4], “weak”; under setting [5], “weak”; under setting [6], “weak”. Also, the Cytotoxicity activity result is reported as “weak” under setting [7], “weak” under setting [8] and “weak” under setting [9].

With `CC1(C)CC2C3=CCC4C5(C)CCC(OC(=O)c6ccccc6)C(C)(COC(=O)c6ccccc6)C5CCC4(C)C3(C)CC(OC(=O)c3ccccc3)C2(COC(=O)c2ccccc2)C(O)C1OC(=O)c1ccccc1` (stereo not drawn) [Compound K17], the Cytotoxicity activity entry by setting is: under setting [1], “weak”; under setting [2], “weak”; under setting [3], “weak”; under setting [4], “weak”; under setting [5], “weak”; under setting [6], “weak”. Also, the Cytotoxicity activity result under setting [7] was “weak”, the Cytotoxicity activity entry under setting [8] is “weak” and the Cytotoxicity activity entry under setting [9] was “weak”.

On to `CC1(C)CC2C3=CCC4C5(C)CCC(OC(=O)c6ccccc6)C(C)(COC(=O)c6ccccc6)C5CCC4(C)C3(C)CC(OC(=O)c3ccccc3)C2(COC(=O)c2ccccc2)C(OC(=O)c2ccccc2)C1O` (stereo not drawn) [Compound K18], for which the Cytotoxicity activity result was “weak” under setting [1]; “weak” under setting [2]; “weak” under setting [3]; “weak” under setting [4]; “weak” under setting [5]; “weak” under setting [6]. Further, the Cytotoxicity activity entry is “weak” under setting [7], “weak” under setting [8] and “weak” under setting [9].

For the compound `CC1(C)CC2C3=CCC4C5(C)CCC(OC(=O)c6ccccc6)C(C)(COC(=O)c6ccccc6)C5CCC4(C)C3(C)CC(OC(=O)c3ccccc3)C2(COC(=O)c2ccccc2)C(OC(=O)c2ccccc2)C1OC(=O)c1ccccc1` (stereo not drawn) [Compound K19], the Cytotoxicity activity result is, setting by setting: under setting [1], “none”; under setting [2], “none”; under setting [3], “none”; under setting [4], “none”; under setting [5], “none”; under setting [6], “none”. Besides, the Cytotoxicity activity result runs as follows: under setting [7], “none”; under setting [8], “none”; under setting [9], “none”.

As to `CC1(C)CC2C3=CCC4C5(C)CCC(O)C(C)(CO)C5CCC4(C)C3(C)CC(O)C2(COC(=O)c2ccccc2)C(OC(=O)c2ccccc2)C1OC(=O)c1ccccc1` (stereo not drawn) [Compound K20], the Cytotoxicity activity entry by setting is: under setting [1], “moderate”; under setting [2], “moderate”; under setting [3], “moderate”; under setting [4], “moderate”; under setting [5], “moderate”; under setting [6], “moderate”. In addition, the Cytotoxicity activity result by setting is: under setting [7], “moderate”; under setting [8], “moderate”; under setting [9], “moderate”.

Regarding `CC1(C)CC2C3=CCC4C5(C)CCC(O)C(C)(COC(=O)c6ccccc6)C5CCC4(C)C3(C)CC(O)C2(CO)C(OC(=O)c2ccccc2)C1OC(=O)c1ccccc1` (stereo not drawn) [Compound K21], the Cytotoxicity activity entry under setting [1] is reported as “moderate”; the Cytotoxicity activity entry under setting [2] is “moderate”; the Cytotoxicity activity entry under setting [3] was “moderate”; the Cytotoxicity activity entry under setting [4] is “moderate”; the Cytotoxicity activity result under setting [5] is “moderate”; the Cytotoxicity activity entry under setting [6] is “moderate”. Moreover, the Cytotoxicity activity result under setting [7] is “moderate”, the Cytotoxicity activity result under setting [8] is given as “moderate” and the Cytotoxicity activity result under setting [9] was “moderate”.

Take `CC1(C)CC2C3=CCC4C5(C)CCC(O)C(C)(CO)C5CCC4(C)C3(C)CC(OC(=O)c3ccccc3)C2(CO)C(OC(=O)c2ccccc2)C1OC(=O)c1ccccc1` (stereo not drawn) [Compound K22]: the Cytotoxicity activity result by setting is: under setting [1], “moderate”; under setting [2], “moderate”; under setting [3], “moderate”; under setting [4], “moderate”; under setting [5], “moderate”; under setting [6], “moderate”. In addition, the Cytotoxicity activity result under setting [7] was “moderate”, the Cytotoxicity activity result under setting [8] was “moderate” and the Cytotoxicity activity result under setting [9] was “moderate”.

Turning to `CC1(C)CC2C3=CCC4C5(C)CCC(OC(=O)c6ccccc6)C(C)(CO)C5CCC4(C)C3(C)CC(O)C2(CO)C(OC(=O)c2ccccc2)C1OC(=O)c1ccccc1` (stereo not drawn) [Compound K23], the Cytotoxicity activity entry is “moderate” under setting [1]; “moderate” under setting [2]; “moderate” under setting [3]; “moderate” under setting [4]; “moderate” under setting [5]; “moderate” under setting [6]. Moreover, the Cytotoxicity activity result is “moderate” under setting [7], “moderate” under setting [8] and “moderate” under setting [9].

Turning to `CC1(C)CC2C3=CCC4C5(C)CCC(O)C(C)(CO)C5CCC4(C)C3(C)CC(O)C2(CO)C(OC(=O)c2ccccc2)C1OC(=O)c1ccccc1` (stereo not drawn) [Compound K24], the Cytotoxicity activity result is, setting by setting: under setting [1], “moderate”; under setting [2], “moderate”; under setting [3], “moderate”; under setting [4], “moderate”; under setting [5], “moderate”; under setting [6], “moderate”. The Cytotoxicity activity entry is, setting by setting: under setting [7], “moderate”; under setting [8], “moderate”; under setting [9], “moderate”.

For `CC1(C)CC2C3=CCC4C5(C)CCC(O)C(C)(CO)C5CCC4(C)C3(C)CC(O)C2(COC(=O)c2ccccc2)C(O)C1OC(=O)c1ccccc1` (stereo not drawn) [Compound K25], the Cytotoxicity activity result was “moderate” under setting [1]; “moderate” under setting [2]; “moderate” under setting [3]; “moderate” under setting [4]; “moderate” under setting [5]; “moderate” under setting [6]. For the same compound, the Cytotoxicity activity result by setting is: under setting [7], “moderate”; under setting [8], “moderate”; under setting [9], “moderate”.

Consider `CC1(C)CC2C3=CCC4C5(C)CCC(O)C(C)(CO)C5CCC4(C)C3(C)CC(O)C2(COC(=O)c2ccccc2)C(OC(=O)c2ccccc2)C1O` (stereo not drawn) [Compound K26], for which the Cytotoxicity activity result is given as “moderate” under setting [1]; “moderate” under setting [2]; “moderate” under setting [3]; “moderate” under setting [4]; “moderate” under setting [5]; “moderate” under setting [6]. In addition, the Cytotoxicity activity result under setting [7] was “moderate”, the Cytotoxicity activity result under setting [8] is listed as “moderate” and the Cytotoxicity activity result under setting [9] is given as “moderate”.

The values are drawn from patent US20230340012A1, “NATURAL AND SYNTHETIC COMPOUNDS FOR TREATING CANCER AND OTHER DISEASES” (PACIFIC ARROW LIMITED, priority 2009, published 2023).
